Among the test systems are 786-0; A498; CAKI-1; CCRF-CEM; COLO 205; DU-145; HCT-15; HL-60; KM12; MDA-MB-435; Malme-3M; NCI-H23; NCI/ADR-RES; OVCAR-3; RXF 393; SF-268; SF-295; U-251; UO-31; SW-620.
Holding throughout (test): DTP human tumour cell line panel, 48 h

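Grown in 96-well plates, cells were treated for 48 hours with each compound at five concentrations. Insufficient inhibition: endpoint recorded as highest concentration tested. GI50: concentration for 50% inhibition of growth.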 Active and inactive are the calls of the source. Cut-off read from the data, not from the text of the source: active = GI50 up to about 1.1 µM and inactive = higher. Residues, ends and D or L forms follow the SMILES beside them. *: point of attachment. Boc = CC(C)(C)OC(=O)*; OBn = c1ccc(CO*)cc1

A word on the GI50: it is the concentration at which growth is held to half of that of the control. In the case of `Oc1ccc[n+](Cc2ccccc2)c1`, the GI50 in the assay on 786-0, with A498, in the assay with CAKI-1, in the assay on CCRF-CEM, with COLO 205 and in the assay on DU-145 was > 100 µM (inactive) in each case. The GI50 in the assay with HCT-15 is greater than 100 µM; in the assay with HL-60, > 100 µM (inactive); in the assay with KM12, > 100 µM (inactive); with MDA-MB-435 it was > 100 µM (inactive); with Malme-3M, > 100 µM (inactive); in the assay on NCI-H23 it was > 100 µM (inactive). The GI50 with NCI/ADR-RES, in the assay on OVCAR-3, in the assay on RXF 393, in the assay with SF-268, in the assay on SF-295 and in the assay on U-251 was > 100 µM (inactive) each time. For the same molecule, in the assay with UO-31, the GI50 is > 100 µM (inactive).
Turning to `Cc1ccc([Se](=C(C(=O)c2ccccc2)C(=O)c2ccccc2)c2ccc(C)cc2)cc1`, the GI50 with 786-0 is 38.3 µM (inactive); in the assay on A498 it was 14.8 µM (inactive); in the assay with CAKI-1 it was 19.5 µM (inactive); in the assay on COLO 205, 17.3 µM (inactive); with DU-145 it was 38.7 µM (inactive); in the assay with HCT-15 it was 16.9 µM. Besides, the GI50 in the assay on HL-60 was 21.3 µM (inactive); with KM12, 18.9 µM (inactive); in the assay on MDA-MB-435 it was 20.5 µM (inactive); in the assay on Malme-3M, 18.4 µM (inactive); in the assay on NCI-H23, 18.8 µM (inactive); with NCI/ADR-RES it was 34.3 µM (inactive). Also, the GI50 with OVCAR-3 is 20.6 µM (inactive); with RXF 393, 68.1 µM (inactive); in the assay with SF-268 it was 35.3 µM (inactive); in the assay with SF-295, 22.3 µM (inactive); in the assay on SW-620 it was 29.5 µM (inactive); in the assay on U-251, 20.6 µM (inactive). The GI50 in the assay on UO-31 was 30.4 µM (inactive).
For `Cc1ccc2nc(-c3ccc(N)c(Br)c3)sc2c1`, the GI50 in the assay with 786-0 is 29.1 µM (inactive); with A498 it was > 100 µM (inactive); in the assay on CAKI-1, 34.8 µM (inactive); in the assay on CCRF-CEM it was 3.37 µM (inactive); in the assay with COLO 205, 55.8 µM (inactive); in the assay with DU-145, 31.5 µM (inactive). The GI50 was 7.01 µM with HCT-15; 17.4 µM (inactive) in the assay on HL-60; 7.41 µM (inactive) with KM12; 5.4 µM (inactive) in the assay with MDA-MB-435; > 100 µM (inactive) with Malme-3M; 22.2 µM (inactive) in the assay with NCI-H23. The GI50 in the assay with NCI/ADR-RES is 52.1 µM (inactive); in the assay on OVCAR-3, 10.1 µM (inactive); with RXF 393, 18.2 µM (inactive); in the assay with SF-268, 10.6 µM (inactive); with SF-295 it was 34.8 µM (inactive); in the assay with U-251, 37.5 µM (inactive). Also, in the assay with UO-31, the GI50 is 5.27 µM (inactive).
As to `O=C(Cn1c(C(=O)/C=C/c2cccs2)nc2ccccc21)c1ccc(Cl)cc1`, the GI50 is 16.3 µM (inactive) in the assay with 786-0; 19.9 µM (inactive) in the assay on A498; 17.5 µM (inactive) in the assay with COLO 205; 26.7 µM (inactive) in the assay with DU-145; 21.5 µM with HCT-15; 18.3 µM (inactive) in the assay on HL-60. Besides, the GI50 was 11.1 µM (inactive) in the assay with KM12; 12.7 µM (inactive) in the assay with MDA-MB-435; 13.6 µM (inactive) in the assay with Malme-3M; 14.7 µM (inactive) with NCI-H23; 14 µM (inactive) in the assay with NCI/ADR-RES; 15.5 µM (inactive) with OVCAR-3. For the same molecule, the GI50 with RXF 393 was 29.2 µM (inactive); in the assay with SF-268 it was 12.6 µM (inactive); in the assay on SW-620 it was 25.6 µM (inactive); in the assay with U-251, 14.4 µM (inactive); with UO-31, 24.1 µM (inactive).
As for `CCOC(CBr)OC1C(=O)OCC1(C)C` (stereo not drawn), the GI50 in the assay on 786-0, in the assay with A498, in the assay on CAKI-1, with CCRF-CEM, in the assay with COLO 205 and in the assay on DU-145 was > 100 µM (inactive) each time. Moreover, the GI50 in the assay on HCT-15 was greater than 100 µM; in the assay on HL-60, > 100 µM (inactive); in the assay with KM12, > 100 µM (inactive); with MDA-MB-435 it was > 100 µM (inactive); in the assay with Malme-3M it was > 100 µM (inactive); with NCI-H23, > 100 µM (inactive). Besides, the GI50 in the assay with NCI/ADR-RES, in the assay with RXF 393, in the assay with SF-268, in the assay on SF-295, in the assay with SW-620 and in the assay on U-251 was > 100 µM (inactive) throughout. Moreover, the GI50 in the assay with UO-31 is > 100 µM (inactive).
Turning to `CC(C)CC(NC(=O)OC(C)(C)C)C(=O)NC(CC(=O)OCc1ccccc1)C(=O)OCc1ccccc1` (stereo not drawn) (Boc-Leu-Asp(OBn)-OBn; configuration not given here), the GI50 in the assay on 786-0 is 19 µM (inactive); in the assay with A498 it was > 100 µM (inactive); in the assay on CAKI-1, > 100 µM (inactive); in the assay on CCRF-CEM it was 33.1 µM (inactive); in the assay with COLO 205 it was 43.2 µM (inactive); with DU-145, 37.9 µM (inactive). The GI50 in the assay with HL-60 was 26.1 µM (inactive); in the assay on KM12, 41.8 µM (inactive); in the assay with MDA-MB-435, 40.1 µM (inactive); in the assay with Malme-3M, 51.5 µM (inactive); in the assay on NCI-H23, 32.4 µM (inactive); in the assay on NCI/ADR-RES it was > 100 µM (inactive). Besides, the GI50 with OVCAR-3 was 22.4 µM (inactive); in the assay with RXF 393, 26.1 µM (inactive); in the assay with SF-268 it was 41.8 µM (inactive); in the assay with SF-295, 43.7 µM (inactive); in the assay on SW-620 it was 34.2 µM (inactive); with U-251, 25.5 µM (inactive). Further, the GI50 with UO-31 was 27 µM (inactive).
Regarding `CC1=Nc2sc3c(c2C2=NCCN12)CCCC3`, the GI50 in the assay on 786-0 is 21.8 µM (inactive); in the assay on A498 it was 39.9 µM (inactive); in the assay on CAKI-1 it was 22.9 µM (inactive); in the assay on COLO 205, 32.3 µM (inactive); in the assay on DU-145, 30.5 µM (inactive); in the assay with HCT-15 it was 29.9 µM. The GI50 in the assay with HL-60 was 22.8 µM (inactive); in the assay with KM12 it was 16.8 µM (inactive); in the assay with MDA-MB-435 it was 34 µM (inactive); in the assay on Malme-3M, 25.7 µM (inactive); in the assay with NCI-H23, 18.7 µM (inactive); with NCI/ADR-RES it was 14.8 µM (inactive). Moreover, the GI50 in the assay with OVCAR-3 is 28.2 µM (inactive); with RXF 393, 31.3 µM (inactive); in the assay with SF-268, 52.2 µM (inactive); in the assay on SF-295 it was 33.5 µM (inactive); in the assay on SW-620 it was 25.4 µM (inactive); in the assay with U-251 it was 29 µM (inactive). Further, in the assay on UO-31, the GI50 was 17.1 µM (inactive).
On to `O=c1n(CC2CO2)c(=O)n(CC2CO2)c(=O)n1CC1CO1` (stereo not drawn) [TEROXIRONE], for which the GI50 in the assay on 786-0 was 6.22 µM (inactive); in the assay on A498, 30.3 µM (inactive); in the assay with CAKI-1 it was 8.04 µM (inactive); in the assay with CCRF-CEM, 3.6 µM (inactive); in the assay with COLO 205, 14.3 µM (inactive); in the assay on DU-145, 6.97 µM (inactive). Moreover, the GI50 is 1.55 µM (inactive) with HL-60; 56.1 µM (inactive) in the assay with KM12; 17.9 µM (inactive) in the assay with MDA-MB-435; 25.4 µM (inactive) with Malme-3M; 16.7 µM (inactive) in the assay on NCI-H23; 34 µM (inactive) in the assay with NCI/ADR-RES. For the same molecule, the GI50 was 32.7 µM (inactive) in the assay with OVCAR-3; 37 µM (inactive) in the assay on RXF 393; 14.3 µM (inactive) in the assay with SF-268; 10 µM (inactive) in the assay with SF-295; 34 µM (inactive) with SW-620; 11 µM (inactive) in the assay on U-251. Moreover, the GI50 in the assay with UO-31 is 25.7 µM (inactive).
On to `CC(=O)Nc1cccc(N2C(=O)/C(=C\c3cccc(Oc4ccccc4)c3)S(=O)(=O)C2c2ccccc2)c1` (stereo not drawn), for which the GI50 with 786-0 was > 100 µM (inactive); in the assay on A498 it was > 100 µM (inactive); in the assay with CAKI-1, 53.5 µM (inactive); in the assay with CCRF-CEM, 57.8 µM (inactive); in the assay on COLO 205 it was 59.7 µM (inactive); in the assay on DU-145, > 100 µM (inactive). The GI50 in the assay with HCT-15 is greater than 100 µM; in the assay with HL-60, 18.9 µM (inactive); in the assay with KM12, 68.5 µM (inactive); in the assay on MDA-MB-435 it was 34 µM (inactive); in the assay on Malme-3M, > 100 µM (inactive); with NCI-H23 it was 97.7 µM (inactive). The GI50 in the assay with NCI/ADR-RES was 55.5 µM (inactive); with OVCAR-3, 45.4 µM (inactive); in the assay with RXF 393, > 100 µM (inactive); in the assay with SF-295 it was 46.5 µM (inactive); in the assay on SW-620, 37.8 µM (inactive); with U-251 it was 65.6 µM (inactive). Moreover, the GI50 in the assay on UO-31 was 33.1 µM (inactive).
As to `CC(=O)O[C@H]1C(=O)[C@@]2(C)[C@H]([C@H](OC(=O)c3ccc([N+](=O)[O-])cc3)[C@]3(O)C[C@H](OC(=O)[C@H](O)[C@@H](NC(=O)c4ccccc4)c4ccccc4)C(C)=C1C3(C)C)[C@]1(OC(C)=O)CO[C@@H]1C[C@@H]2O`, the GI50 in the assay with 786-0, with A498, with CAKI-1, in the assay with CCRF-CEM, in the assay with COLO 205 and in the assay with DU-145 was > 25 µM (inactive) each time. In addition, the 50% growth inhibitory concentration (GI50) in the assay with HCT-15 was greater than 25 µM; in the assay on HL-60, > 25 µM (inactive); in the assay with KM12 it was > 25 µM (inactive); with MDA-MB-435 it was > 25 µM (inactive); in the assay with Malme-3M, > 25 µM (inactive); with NCI-H23, > 25 µM (inactive). Besides, the GI50 with NCI/ADR-RES, with RXF 393, in the assay on SF-268, in the assay on SF-295, with SW-620 and in the assay on U-251 was > 25 µM (inactive) each time. In addition, in the assay on UO-31, the GI50 was > 25 µM (inactive).

The record behind these values is ChEMBL document CHEMBL1201862, “PubChem BioAssay data set” (2004).
